Ki data for 29 compounds are collected here from patent publication US10844032B2, “Substituted benzofuran, benzothiophene and indole Mcl-1 inhibitors” (Vanderbilt University, priority 2012, dated 2020).

Where two headings read alike, the source gives them in different places.

The experiment has as its target recombinant Mcl-1 (residues 172-327) (Homo sapiens (Human), UniProt Q07820). Kind of experiment: Bak peptide fluorescence polarization anisotropy competition assay, Mcl-1. Format: binding. Conditions: read-out: Ki for inhibition of Mcl-1. On the technique in general: Fluorescence polarisation rises when a labelled molecule tumbles more slowly, as on binding a larger partner.

Setting [1] is: Table 2, Ki range, FITC-Bak peptide 10 nM, Mcl-1 14 nM.

Sequence of recombinant Mcl-1 (residues 172-327) (Q07820 172-327): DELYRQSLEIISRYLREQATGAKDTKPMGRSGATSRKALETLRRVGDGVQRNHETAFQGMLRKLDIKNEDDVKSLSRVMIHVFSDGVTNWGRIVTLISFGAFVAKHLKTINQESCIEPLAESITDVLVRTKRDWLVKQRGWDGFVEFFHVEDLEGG

As usually defined, the Ki is a measure of affinity in units of concentration, obtained from inhibition or displacement. For the compound `Cc1cc(OCCCc2c(C(=O)NS(=O)(=O)CCNC(=O)c3cccn3Cc3ccccc3)n(Cc3cccnc3)c3cc(Cl)ccc23)cc(C)c1Cl` [Example 277, N-((2-(1-benzyl-1H-pyrrole-2-carboxamido)ethyl)sulfonyl)-6-chloro-3-(3-(4-chloro-3,5-dimethylphenoxy)propyl)-1-(pyridin-3-ylmethyl)-1H-indole-2-carboxamide], the Ki is 301 to 500 nM.

Take `Cc1cc(OCCCc2c(C(=O)NS(=O)(=O)CCNC(=O)c3ccc4c(ccn4C)c3)[nH]c3ccccc23)cc(C)c1Cl` [Example 196, 3-(3-(4-chloro-3,5-dimethylphenoxy)propyl)-N-((2-(1-methyl-1H-indole-5-carboxamido)ethyl)sulfonyl)-1H-indole-2-carboxamide]: the Ki was in the range of 301 to 500 nM. Consider `CS(=O)(=O)NC(=O)c1[nH]c2ccccc2c1CCCOc1cccc(C(F)(F)F)c1` [Example 32, N-(methylsulfonyl)-3-(3-(3-(trifluoromethyl)phenoxy)propyl)-1H-indole-2-carboxamide], for which the Ki lay within 1000 to 9990 nM. For `CC(=O)N1CCN(c2ccc(OCc3nn(C)c(C)c3-c3cccc4c(CCCOc5cc(C)c(Cl)c(C)c5)c(C(=O)NS(C)(=O)=O)n(Cc5cccnc5)c34)cc2)CC1` [Example 125, 7-(3-((4-(4-acetylpiperazin-1-yl)phenoxy)methyl)-1,5-dimethyl-1H-pyrazol-4-yl)-3-(3-(4-chloro-3,5-dimethylphenoxy)propyl)-N-(methylsulfonyl)-1-(pyridin-3-ylmethyl)-1H-indole-2-carboxamide], the Ki fell in the range of 101 to 299 nM. On to `COCc1nn(C)c(C)c1-c1cccc2c(CCCOc3cc(C)c(Cl)c(C)c3)c(C(=O)NS(=O)(=O)c3ccccc3)[nH]c12` [Example 130, 3-(3-(4-chloro-3,5-dimethylphenoxy)propyl)-7-(3-(methoxymethyl)-1,5-dimethyl-1H-pyrazol-4-yl)-N-(phenylsulfonyl)-1H-indole-2-carboxamide], for which the Ki under setting [1] was ≤ 100 nM.

Consider `Cc1cc(OCCCc2c(C(=O)NS(=O)(=O)CCNC(=O)c3ccc4cc[nH]c4c3)[nH]c3ccccc23)cc(C)c1Cl` [Example 176, N-((2-(1H-indole-6-carboxamido)ethyl)sulfonyl)-3-(3-(4-chloro-3,5-dimethylphenoxy)propyl)-1H-indole-2-carboxamide], for which the Ki was in the range of 101 to 299 nM.

As for `Cc1cc(OCCCc2c(C(=O)NS(C)(=O)=O)sc3cc(Cl)ccc23)cc(C)c1Cl` [Example 72, 6-chloro-3-(3-(4-chloro-3,5-dimethylphenoxy)propyl)-N-(methylsulfonyl)benzo[b]thiophene-2-carboxamide], the Ki fell in the range of 1000 to 9990 nM.

For the compound `Cc1cc(OCCCc2c(C(=O)NS(=O)(=O)CCNC(=O)c3cccn3Cc3ccccc3)n(Cc3ccccc3)c3cc(Cl)ccc23)cc(C)c1Cl` [Example 278, 1-benzyl-N-((2-(1-benzyl-1H-pyrrole-2-carboxamido)ethyl)sulfonyl)-6-chloro-3-(3-(4-chloro-3,5-dimethylphenoxy)propyl)-1H-indole-2-carboxamide], the Ki was in the range of 101 to 299 nM.

Regarding `Cc1cc(OCCCc2c(C(=O)NS(=O)(=O)CCNC(=O)Cc3ccc(Br)cc3)[nH]c3ccccc23)cc(C)c1Cl` [Example 169, N-((2-(2-(4-bromophenyl)acetamido)ethyl)sulfonyl)-3-(3-(4-chloro-3,5-dimethylphenoxy)propyl)-1H-indole-2-carboxamide], the Ki lay in the range of 301 to 500 nM. The same measure, in the same setting: with `Cc1cc(OCCCc2c(C(=O)NS(=O)(=O)CCNC(=O)[C@@H]3Cc4ccccc4N3)[nH]c3ccccc23)cc(C)c1Cl` [Example 168, (S)-3-(3-(4-chloro-3,5-dimethylphenoxy)propyl)-N-((2-(indoline-2-carboxamido)ethyl)sulfonyl)-1H-indole-2-carboxamide] the figure was 101 to 299 nM. For the compound `Cc1cc(OCCCc2c(C(=O)NS(C)(=O)=O)[nH]c3cc(Br)ccc23)cc(C)c1Cl` [Example 112, 6-bromo-3-(3-(4-chloro-3,5-dimethylphenoxy)propyl)-N-(methylsulfonyl)-1H-indole-2-carboxamide], the inhibition constant (Ki) is 301 to 500 nM. On to `COc1ccc(Cn2cccc2C(=O)NCCS(=O)(=O)NC(=O)c2[nH]c3cc(Cl)ccc3c2CCCOc2cc(C)c(Cl)c(C)c2)cc1` [Example 249, 6-chloro-3-(3-(4-chloro-3,5-dimethylphenoxy)propyl)-N-((2-(1-(4-methoxybenzyl)-1H-pyrrole-2-carboxamido)ethyl)sulfonyl)-1H-indole-2-carboxamide], for which the inhibitory constant (Ki) lay within 101 to 299 nM. With `Cc1cc(OCCCc2c(C(=O)NS(C)(=O)=O)[nH]c3cccc(Br)c23)cc(C)c1Cl` [Example 113, 4-bromo-3-(3-(4-chloro-3,5-dimethylphenoxy)propyl)-N-(methylsulfonyl)-1H-indole-2-carboxamide], the Ki under setting [1] was ≤ 100 nM. `COCc1nn(C)c(C)c1-c1cccc2c(CCCOc3cc(C)c(Cl)c(C)c3)c(C(=O)NS(=O)(=O)c3ccccc3)n(C)c12` [Example 129, 3-(3-(4-chloro-3,5-dimethylphenoxy)propyl)-7-(3-(methoxymethyl)-1,5-dimethyl-1H-pyrazol-4-yl)-1-methyl-N-(phenylsulfonyl)-1H-indole-2-carboxamide]: the Ki lay within 101 to 299 nM.

Turning to `Cc1cc(OCCCc2c(C(=O)NS(=O)(=O)CCNC(=O)c3cccn3Cc3ccccc3F)[nH]c3cc(Cl)ccc23)cc(C)c1Cl` [Example 248, 6-chloro-3-(3-(4-chloro-3,5-dimethylphenoxy)propyl)-N-((2-(1-(2-fluorobenzyl)-1H-pyrrole-2-carboxamido)ethyl)sulfonyl)-1H-indole-2-carboxamide], the Ki was in the range of 101 to 299 nM. In the case of `Cc1cc(OCCCc2c(C(=O)NS(=O)(=O)CCNC(=O)c3cccnc3)[nH]c3ccccc23)cc(C)c1Cl` [Example 155, 3-(3-(4-chloro-3,5-dimethylphenoxy)propyl)-N-((2-(nicotinamido)ethyl)sulfonyl)-1H-indole-2-carboxamide], the Ki was 1000 to 9990 nM.

For the compound `Cc1cc(OCCCc2c(C(=O)NS(=O)(=O)CCN3C(=O)c4ccccc4C3=O)[nH]c3ccccc23)cc(C)c1Cl` [Example 197, 3-(3-(4-chloro-3,5-dimethylphenoxy)propyl)-N-((2-(1,3-dioxoisoindolin-2-yl)ethyl)sulfonyl)-1H-indole-2-carboxamide], the Ki lay in the range of 501 to 999 nM.

Consider `CS(=O)(=O)NC(=O)c1[nH]c2ccccc2c1CCCOc1ccc(Br)cc1` [Example 36, 3-(3-(4-bromophenoxy)propyl)-N-(methylsulfonyl)-1H-indole-2-carboxamide], for which the Ki lay within 10000 to 50000 nM. Still for that read-out and setting: in the case of `Cc1cc(OCCCc2c(C(=O)NS(=O)(=O)CCNC(=O)C3CCCCC3)[nH]c3cccc(Cl)c23)cc(C)c1Cl` [Example 208, 4-chloro-3-(3-(4-chloro-3,5-dimethylphenoxy)propyl)-N-((2-(cyclohexanecarboxamido)ethyl)sulfonyl)-1H-indole-2-carboxamide] it was 301 to 500 nM; in that of `Cc1cc(OCCCc2c(C(=O)NS(=O)(=O)CCNC(=O)c3cncn3C)[nH]c3ccccc23)cc(C)c1Cl` [Example 187, 3-(3-(4-chloro-3,5-dimethylphenoxy)propyl)-N-((2-(1-methyl-1H-imidazole-5-carboxamido)ethyl)sulfonyl)-1H-indole-2-carboxamide], 1000 to 9990 nM; in that of `O=C(O)c1sc2cc(-c3ccccc3)ccc2c1CCCOc1cccc2ccccc12` [Example 13, 3-(3-(naphthalen-1-yloxy)propyl)-6-phenylbenzo[b]thiophene-2-carboxylic acid], 1000 to 9990 nM.

As to `CS(=O)(=O)NC(=O)c1[nH]c2ccccc2c1CCCOc1ccc(Cl)c2ccccc12` [Example 39, 3-(3-((4-chloronaphthalen-1-yl)oxy)propyl)-N-(methylsulfonyl)-1H-indole-2-carboxamide], the Ki is 501 to 999 nM. For `Cc1cc(OCCCc2c(C(=O)NS(C)(=O)=O)sc3ccccc23)cc(C)c1Cl` [Example 68, 3-(3-(4-chloro-3,5-dimethylphenoxy)propyl)-N-(methylsulfonyl)benzo[b]thiophene-2-carboxamide], the Ki lay within 1000 to 9990 nM.

With `Cc1cc(OCCCc2c(C(=O)NS(=O)(=O)c3ccccc3)[nH]c3c(-c4ccncc4)cccc23)cc(C)c1Cl` [Example 94, 3-(3-(4-chloro-3,5-dimethylphenoxy)propyl)-N-(phenylsulfonyl)-7-(pyridin-4-yl)-1H-indole-2-carboxamide], the Ki fell in the range of 101 to 299 nM. Regarding `Cc1cc(OCCCc2c(C(=O)NS(=O)(=O)CCNC(=O)NC3CCCCC3)[nH]c3ccccc23)cc(C)c1Cl` [Example 199, 3-(3-(4-chloro-3,5-dimethylphenoxy)propyl)-N-((2-(3-cyclohexylureido)ethyl)sulfonyl)-1H-indole-2-carboxamide], the Ki lay within 301 to 500 nM. Take `O=C(CCc1ccccc1)NCCS(=O)(=O)NC(=O)c1[nH]c2cc(Cl)ccc2c1CCCOc1cccc2ccccc12` [Example 240, 6-chloro-3-(3-(naphthalen-1-yloxy)propyl)-N-((2-(3-phenylpropanamido)ethyl)sulfonyl)-1H-indole-2-carboxamide]: the Ki fell in the range of 301 to 500 nM.

As for `Cc1cc(OCCCc2c(C(=O)NS(=O)(=O)c3ccccc3)[nH]c3c(-c4ccsc4C)cccc23)cc(C)c1Cl` [Example 98, 3-(3-(4-chloro-3,5-dimethylphenoxy)propyl)-7-(2-methylthiophen-3-yl)-N-(phenylsulfonyl)-1H-indole-2-carboxamide], the Ki under setting [1] was ≤ 100 nM.

For `COc1cccc(Cn2cccc2C(=O)NCCS(=O)(=O)NC(=O)c2[nH]c3cc(Cl)ccc3c2CCCOc2cc(C)c(Cl)c(C)c2)c1` [Example 247, 6-chloro-3-(3-(4-chloro-3,5-dimethylphenoxy)propyl)-N-((2-(1-(3-methoxybenzyl)-1H-pyrrole-2-carboxamido)ethyl)sulfonyl)-1H-indole-2-carboxamide], the Ki was in the range of 101 to 299 nM. Same read-out and setting: in the case of `CS(=O)(=O)NC(=O)c1[nH]c2cccc(C(F)(F)F)c2c1CCCOc1cccc2ccccc12` [Example 81, N-(methylsulfonyl)-3-(3-(naphthalen-1-yloxy)propyl)-4-(trifluoromethyl)-1H-indole-2-carboxamide] it was 301 to 500 nM.
